Values of other authors, collected in US20060264496A1, “Substituted indoline and indole derivatives” (priority 2003, published 2006).

Tests used:
[1] = tested on: amygdala kindling model; settings: complex partial seizures
[2] = tested on: kainic acid-induced status epilepticus; settings: rat, following kainic acid-induced status epilepticus
[3] = tested on: hippocampal kindling; settings: rat
[4] = tested on: animal models of neuropathic pain
[5] = tested on: electrically induced seizures, seizures induced chemically by pentylenetetrazole, picrotoxin and N-methyl-D-aspartate (NMDA), DBA/2 mouse; settings: oral and intraperitoneal administration, rats and mice
[6] = tested on: K(+) current in neuronal cells
[7] = tested on: epileptic patients; settings: clinical trials
[8] = tested on: animal models of anxiety-like behaviour; settings: some animal models
[9] = tested on: animal models of ethanol withdrawal syndrome

Row | Structure (SMILES) | activity in amygdala kindling model [1] | limbic neurodegeneration and expression of markers of apoptosis [2] | progression of hippocampal kindling [3] | effect in neuropathic pain models [4] | anticonvulsant activity [5] | activation of K(+) current [6] | incidence of seizures [7] | activity in anxiety-like behaviour models [8] | effect in ethanol withdrawal syndrome models [9]
1 | CCOC(=O)Nc1ccc(NCc2ccc(F)cc2)cc1N [Retigabine, N-(2-amino-4-(4-fluorobenzylamino)-phenyl)carbamic acid ethyl ester] | active | prevent limbic neurodegeneration and the expression of markers of apoptosis | delay the progression of hippocampal kindling | beneficial | active | activate a K(+) current | effectiveness in reducing the incidence of seizures | active | –
2 | NCC1(CC(=O)O)CCCCC1 [gabapentin] | – | – | – | – | – | – | – | – | very effective
